Target: T1, TcLAR (Theobroma cacao, UniProt D3XFG4)
T1 construct: gene LAR; full-length ORF (361 residues, 1,083 bp) in pET-21a, C-terminal 6xHis tag kept, E. coli Rosetta (DE3), purified by Magne-His
Assay: HPLC-UV and radioactivity detection of catechin product
Format: biochemical
Settings: labelled compound (3H); 0.4 mM substrate, 0.5 mM NADPH, 100 mM potassium phosphate pH 7.0, 4 mM DTT, 10% glycerol, 30 C, 1 h

T1 sequence (D3XFG4 entry or part of it): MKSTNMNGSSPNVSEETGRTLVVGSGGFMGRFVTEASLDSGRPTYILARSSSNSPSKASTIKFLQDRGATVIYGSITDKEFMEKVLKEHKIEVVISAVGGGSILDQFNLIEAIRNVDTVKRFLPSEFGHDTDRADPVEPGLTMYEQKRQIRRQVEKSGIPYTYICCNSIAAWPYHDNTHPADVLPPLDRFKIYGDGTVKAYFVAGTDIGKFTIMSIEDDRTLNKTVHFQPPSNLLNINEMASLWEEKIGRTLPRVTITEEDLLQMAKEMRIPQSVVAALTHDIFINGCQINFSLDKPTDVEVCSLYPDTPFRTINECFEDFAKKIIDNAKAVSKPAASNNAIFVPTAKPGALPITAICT

## Oc1cc(O)c2c(c1)O[C@H](c1ccc(O)c(O)c1)[C@@H](O)[C@H]2O [leucocyanidin]
  HPLC-UV and radioactivity detection of catechin product: detected when TcLAR protein was incubated with ^3H -labeled leucocyanidin

Reference: PMC4233638, “Proanthocyanidin synthesis in Theobroma cacao: genes encoding anthocyanidin synthase, anthocyanidin reductase, and leucoanthocyanidin reductase” (BMC Plant Biology, 2013)
